Reference: patent US10947201B2, “Certain chemical entities, compositions, and methods” (NEUPHARMA, INC., priority 2015, dated 2021)

Tests used:
Assay type in all cases: biochemical
Conditions in all cases: for inhibition at 0.1 µM: compound at 100 nM, [ATP] = Km
EGFR (ErbB1) T790M L858R = molecular target: T1, EGFR (ErbB1) T790M L858R (Homo sapiens, UniProt P00533, L858R/T790M); experiment: Z'-LYTE kinase inhibition assay (Invitrogen), EGFR L858R/T790M
T1 construct: purchased Invitrogen
Procedure: (§1) Inhibitory activities of compounds against BTK, EGFR and EGFR mutants (EGFR L858R/T790M) were measured by Invitrogen using Z′-LYTE® Method as briefly described in the following.
(§2) Test Compounds are screened in 1% DMSO (final) in the well. For 10 point titrations, 3-fold serial dilutions are conducted from the starting concentration. All ATP Solutions are diluted to a 4× working concentration in Kinase Buffer (50 mM HEPES pH 7.5, 0.01% BRIJ-35, 10 mM MgCl2, 1 mM EGTA). Peptide/Kinase Mixtures are diluted to a 2× working concentration in the appropriate Kinase Buffers as described below.
(iv) Peptide/Kinase Mixtures for measurement of EGFR (ErbB1) T790M L858R:
The 2×EGFR (ErbB1) T790M L858R/Tyr 04 mixture is prepared in 50 mM HEPES pH 6.5, 0.01% BRIJ-35, 10 mM MgCl2, 1 mM EGTA, 0.02% NaN3. The final 10 μL Kinase Reaction consists of 0.38-4.22 ng EGFR (ErbB1) T790M L858R and 2 μM Tyr 04 in 50 mM HEPES pH 7.0, 0.01% BRIJ-35, 10 mM MgCl2, 1 mM EGTA, 0.01% NaN3. After the 1 hour Kinase Reaction incubation, 5 μL of a 1:64 dilution of Development Reagent B is added.
(§3) Reaction starts by 30-second shaking of mixture consisting of 2.5 μL 4× test compound, 5 μL 2× kinase reaction mixture and 2.5 μL 4×ATP Solution on Bar-coded Corning, low volume NBS, black 384-well plate (Corning Cat. #3676). Then the mixture is incubated for 60-minute at room temperature for the kinase reaction, followed by addition of 5 μL of a 1:1024 dilution of development reagent A and 30-second plate shake. The mixture is then incubated for another 60-minute at room temperature for development reaction. Finally fluorescence is read by plate reader. […] The scale utilized in Tables 2 and 3 is as follows: ++ more than 50% inhibition and + less than 50% inhibition.
(§4) To determine IC50 of a compound against EGFR or EGFR mutants, a series of concentrations of the compound were tested for the inhibition. IC50 was calculated by plotting the concentration of compound vs the percentage of inhibition in treated wells using GraphPad Prism 5. […] The scale utilized in Table 4 is as follows: ++ less than 100 nM and + greater than 100 nM.

BTK = molecular target: T2, BTK (Homo sapiens, UniProt Q06187); experiment: Z'-LYTE kinase inhibition assay (Invitrogen), BTK
T2 construct: purchased Invitrogen
Procedure: as §1, §2
(v) Peptide/Kinase Mixtures for measurement of BTK:
The 2×BTK/Tyr 01 mixture is prepared in 50 mM HEPES pH 7.5, 0.01% BRIJ-35, 10 mM MgCl2, 1 mM EGTA. The final 10 μL Kinase Reaction consists of 1.04-10.4 ng BTK and 2 μM Tyr 01 in 50 mM HEPES pH 7.5, 0.01% BRIJ-35, 10 mM MgCl2, 1 mM EGTA. After the 1 hour Kinase Reaction incubation, 5 μL of a 1:256 dilution of Development Reagent B is added.
as §3, §4

EGFR (ErbB1) = molecular target: T3, EGFR (ErbB1) (Homo sapiens, UniProt P00533); experiment: Z'-LYTE kinase inhibition assay (Invitrogen), EGFR
T3 construct: purchased Invitrogen
Procedure: as §1, §2
(i) Peptide/Kinase Mixtures for measurement of EGFR (ErbB1):
The 2×EGFR (ErbB1)/Tyr 04 mixture is prepared in 50 mM HEPES pH 7.5, 0.01% BRIJ-35, 10 mM MgCl2, 4 mM MnCl2, 1 mM EGTA, 2 mMDTT. The final 10 μL Kinase Reaction consists of 1.1-5.25 ng EGFR (ErbB1) and 2 μM Tyr 04 in 50 mM HEPES pH 7.5, 0.01% BRIJ-35, 10 mM MgCl2, 2 mM MnCl2, 1 mM EGTA, 1 mM DTT. After the 1 hour Kinase Reaction incubation, 5 μL of a 1:64 dilution of DevelopmentReagent B is added.
as §3, §4

T1 sequence (P00533 25-1210 T790M/L858R): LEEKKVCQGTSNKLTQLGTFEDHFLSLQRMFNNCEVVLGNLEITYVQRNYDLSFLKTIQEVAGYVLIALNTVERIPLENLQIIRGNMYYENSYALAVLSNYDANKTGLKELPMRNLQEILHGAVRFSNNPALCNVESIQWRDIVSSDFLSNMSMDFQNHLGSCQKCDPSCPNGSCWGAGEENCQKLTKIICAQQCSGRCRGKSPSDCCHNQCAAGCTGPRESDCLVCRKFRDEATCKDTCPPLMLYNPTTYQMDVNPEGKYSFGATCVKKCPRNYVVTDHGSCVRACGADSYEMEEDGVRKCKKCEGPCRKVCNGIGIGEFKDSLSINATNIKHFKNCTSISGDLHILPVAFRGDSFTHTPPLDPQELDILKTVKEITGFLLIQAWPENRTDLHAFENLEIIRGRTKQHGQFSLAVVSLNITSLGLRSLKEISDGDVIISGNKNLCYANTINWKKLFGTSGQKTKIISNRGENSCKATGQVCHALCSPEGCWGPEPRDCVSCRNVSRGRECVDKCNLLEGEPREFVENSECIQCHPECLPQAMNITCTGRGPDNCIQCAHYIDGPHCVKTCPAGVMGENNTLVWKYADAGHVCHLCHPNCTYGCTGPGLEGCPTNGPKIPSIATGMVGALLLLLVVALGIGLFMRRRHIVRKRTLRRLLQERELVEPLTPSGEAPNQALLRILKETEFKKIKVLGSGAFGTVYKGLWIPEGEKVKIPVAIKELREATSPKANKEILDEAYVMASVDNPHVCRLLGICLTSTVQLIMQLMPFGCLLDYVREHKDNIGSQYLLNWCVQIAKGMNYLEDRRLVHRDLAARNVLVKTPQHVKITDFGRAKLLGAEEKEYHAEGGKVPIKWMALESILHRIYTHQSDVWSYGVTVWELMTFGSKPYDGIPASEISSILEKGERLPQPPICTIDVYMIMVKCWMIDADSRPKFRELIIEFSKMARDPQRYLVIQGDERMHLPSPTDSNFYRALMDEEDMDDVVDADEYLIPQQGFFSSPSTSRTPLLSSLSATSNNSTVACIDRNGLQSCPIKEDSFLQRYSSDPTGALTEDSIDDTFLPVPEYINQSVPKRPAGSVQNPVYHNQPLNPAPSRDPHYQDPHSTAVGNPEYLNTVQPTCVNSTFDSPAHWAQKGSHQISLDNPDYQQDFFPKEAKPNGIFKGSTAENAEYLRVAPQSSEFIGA
T3 sequence (P00533 25-1210): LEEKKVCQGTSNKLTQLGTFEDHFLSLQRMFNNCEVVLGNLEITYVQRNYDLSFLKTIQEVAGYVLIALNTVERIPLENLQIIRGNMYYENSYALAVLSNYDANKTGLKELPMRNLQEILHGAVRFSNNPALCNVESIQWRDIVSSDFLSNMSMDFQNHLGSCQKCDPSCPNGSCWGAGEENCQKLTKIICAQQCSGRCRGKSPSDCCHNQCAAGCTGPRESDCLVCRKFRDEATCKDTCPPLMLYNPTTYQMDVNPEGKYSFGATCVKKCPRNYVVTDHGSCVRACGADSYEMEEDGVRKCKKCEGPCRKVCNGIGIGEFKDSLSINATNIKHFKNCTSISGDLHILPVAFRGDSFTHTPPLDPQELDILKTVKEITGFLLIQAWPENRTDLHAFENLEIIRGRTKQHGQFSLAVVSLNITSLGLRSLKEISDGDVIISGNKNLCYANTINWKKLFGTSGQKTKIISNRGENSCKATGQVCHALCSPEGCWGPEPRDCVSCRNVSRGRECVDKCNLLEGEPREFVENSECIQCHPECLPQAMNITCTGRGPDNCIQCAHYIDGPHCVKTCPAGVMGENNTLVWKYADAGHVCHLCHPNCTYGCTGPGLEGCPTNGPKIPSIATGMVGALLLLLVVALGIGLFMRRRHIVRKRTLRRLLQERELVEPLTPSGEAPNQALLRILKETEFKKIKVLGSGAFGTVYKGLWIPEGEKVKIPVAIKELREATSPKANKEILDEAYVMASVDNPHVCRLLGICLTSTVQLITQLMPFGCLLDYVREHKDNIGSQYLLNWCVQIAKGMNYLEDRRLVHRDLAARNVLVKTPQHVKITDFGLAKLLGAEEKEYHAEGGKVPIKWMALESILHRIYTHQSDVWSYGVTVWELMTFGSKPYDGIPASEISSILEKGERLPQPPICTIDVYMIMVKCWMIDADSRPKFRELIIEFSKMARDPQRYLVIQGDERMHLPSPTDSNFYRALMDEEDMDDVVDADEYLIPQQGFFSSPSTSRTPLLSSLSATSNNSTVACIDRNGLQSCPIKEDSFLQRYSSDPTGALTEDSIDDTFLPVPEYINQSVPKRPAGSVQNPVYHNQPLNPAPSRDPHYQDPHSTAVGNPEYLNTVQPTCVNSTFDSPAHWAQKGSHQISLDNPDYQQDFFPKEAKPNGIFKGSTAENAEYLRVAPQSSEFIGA
T2 sequence (Q06187 whole entry): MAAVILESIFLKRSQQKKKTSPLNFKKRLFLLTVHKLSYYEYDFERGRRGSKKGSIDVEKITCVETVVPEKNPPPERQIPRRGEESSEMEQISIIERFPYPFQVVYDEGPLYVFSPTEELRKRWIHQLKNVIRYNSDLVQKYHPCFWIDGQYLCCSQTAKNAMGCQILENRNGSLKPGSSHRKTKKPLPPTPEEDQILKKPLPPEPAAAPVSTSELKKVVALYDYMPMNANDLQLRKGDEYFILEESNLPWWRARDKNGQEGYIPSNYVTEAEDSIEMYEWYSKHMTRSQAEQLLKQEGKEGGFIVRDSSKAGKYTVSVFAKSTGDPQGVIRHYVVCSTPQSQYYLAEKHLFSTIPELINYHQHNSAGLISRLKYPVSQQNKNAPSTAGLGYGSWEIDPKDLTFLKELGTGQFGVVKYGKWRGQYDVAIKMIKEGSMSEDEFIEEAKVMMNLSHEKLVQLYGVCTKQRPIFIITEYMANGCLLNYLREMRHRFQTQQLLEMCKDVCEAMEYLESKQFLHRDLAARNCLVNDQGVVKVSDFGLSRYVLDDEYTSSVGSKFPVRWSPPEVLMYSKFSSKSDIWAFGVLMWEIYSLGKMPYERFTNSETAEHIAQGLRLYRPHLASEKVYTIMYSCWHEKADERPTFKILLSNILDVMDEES

| Structure (SMILES) | inhibition at 0.1 µM (BTK) [%] | inhibition at 0.1 µM (EGFR (ErbB1) T790M L858R) [%] | inhibition at 0.1 µM (EGFR (ErbB1)) [%] | other results |
| --- | --- | --- | --- | --- |
| C=CC(=O)N1CCCC(n2cnc3cnc(Nc4ccc(N5CCN(C)CC5)c(F)c4)nc32)C1 (stereo not shown) [Example A009, 1-(3-(2-((3-fluoro-4-(4-methylpiperazin-1-yl)phenyl)amino)-9H-purin-9-yl)piperidin-1 yl)prop-2-en-1-one] | > 50 | – | – | IC50 (EGFR (ErbB1) T790M L858R): > 100 nM; IC50 (BTK): < 100 nM; IC50 (EGFR (ErbB1)): > 100 nM |
| C=CC(=O)N1CCC(n2cnc3cnc(Nc4ccc(N5CCN(C)CC5)cc4F)nc32)C1 (stereo not shown) [Example A017, 1-(3-(2-((2-fluoro-4-(4-methylpiperazin-1-yl)phenyl)amino)-9H-purin-9-yl)pyrrolidin-1-yl)prop-2-en-1-one] | < 50 | < 50 | < 50 | – |
| C=CC(=O)N1CCC(n2cnc3cnc(Nc4ccc(N5CCN(C)CC5)c(F)c4F)nc32)C1 (stereo not shown) [Example A011, 1-(3-(2-((2,3-difluoro-4-(4-methylpiperazin-1-yl)phenyl)amino)-9H-purin-9-yl)pyrrolidin-1-yl)prop-2-en-1-one] | < 50 | < 50 | < 50 | – |
| C=CC(=O)N1CCCC(n2cnc3cnc(Nc4ccc(N5CCN(C)CC5)cc4F)nc32)C1 (stereo not shown) [Example A018, 1-(3-(2-((2-fluoro-4-(4-methylpiperazin-1-yl)phenyl)amino)-9H-purin-9-yl)piperidin-1-yl)prop-2-en-1-one] | < 50 | < 50 | < 50 | – |
| C=CC(=O)Nc1cccc(-n2cnc3cnc(Nc4ccc(N5CCN(C)CC5)cc4F)nc32)c1 [Example A021, N-(3-(2-((2-fluoro-4-(4-methylpiperazin-1-yl)phenyl)amino)-9H-purin-9-yl)phenyl)acrylamide] | < 50 | < 50 | < 50 | – |
| C=CC(=O)N1CCC(n2cnc3cnc(Nc4ccc(N5CCN(C)CC5)cc4)nc32)C1 (stereo not shown) [Example A005, 1-(3-(2-((4-(4-methylpiperazin-1-yl)phenyl)amino)-9H-purin-9-yl)pyrrolidin-1-yl)prop-2-en-1-one] | > 50 | – | – | – |
| C=CC(=O)Nc1cccc(-n2cnc3cnc(Nc4ccc(N5CCN(C)CC5)c(F)c4F)nc32)c1 [Example A019, N-(3-(2-((2,3-difluoro-4-(4-methylpiperazin-1-yl)phenyl)amino)-9H-purin-9-yl)phenyl)acrylamide] | < 50 | < 50 | < 50 | – |
| C=CC(=O)N1CCC(n2cnc3cnc(Nc4ccc(N5CCN(CCO)CC5)c(F)c4)nc32)C1 (stereo not shown) [Example A007, 1-(3-(2-((3-fluoro-4-(4-(2-hydroxyethyl)piperazin-1-yl)phenyl)amino)-9H-purin-9-yl)pyrrolidin-1-yl)prop-2-en-1-one] | > 50 | – | – | – |
| C=CC(=O)Nc1cccc(-n2cnc3cnc(Nc4ccc(N5CCN(CCO)CC5)cc4F)nc32)c1 [Example A003, N-(3-(2-((2-fluoro-4-(4-(2-hydroxyethyl)piperazin-1-yl)phenyl)amino)-9H-purin-9-yl)phenyl)acrylamide] | < 50 | – | – | – |
| C=CC(=O)N1CCC(n2cnc3cnc(Nc4ccc(N5CCN(C)CC5)c(F)c4)nc32)C1 (stereo not shown) [Example A004, 1-(3-(2-((3-Fluoro-4-(4-methylpiperazin-1-yl)phenyl)amino)-9H-purin-9-yl)pyrrolidin-1-yl)prop-2-en-1-one] | > 50 | – | – | – |
| C=CC(=O)N1CCC(n2cnc3cnc(Nc4ccc(N5CCN(CCO)CC5)cc4F)nc32)C1 (stereo not shown) [Example A008, 1-(3-(2-((2-fluoro-4-(4-(2-hydroxyethyl)piperazin-1-yl)phenyl)amino)-9H-purin-9-yl)pyrrolidin-1-yl)prop-2-en-1-one] | < 50 | – | – | – |
| C=CC(=O)N1CCC(n2cnc3cnc(Nc4ccc(N5CCN(CCO)CC5)cc4)nc32)C1 (stereo not shown) [Example A006, 1-(3-(2-((4-(4-(2-hydroxyethyl)piperazin-1-yl)phenyl)amino)-9H-purin-9-yl)pyrrolidin-1-yl)prop-2-en-1-one] | > 50 | – | – | – |
